Experimental data from patent US20150368616A1, “METHODS FOR INDUCTION OF CELL FATES FROM PLURIPOTENT CELLS” (THE CLEVELAND CLINIC FOUNDATION, priority 2013, published 2015).
Residues, ends and D or L forms follow the SMILES beside them. *: point of attachment. Cbz = O=C(OCc1ccccc1)*

Experiments:
[1] = system: mouse WT pancreatic explants (E12.5); experiment: Mouse WT pancreatic explants (E12.5) cultured 4 days with DAPT; staining and qRT-PCR; assay type: cell-based; conditions: for ductal cell development: 4 days
Description: […] Sections were stained against Mucin1, carboxypeptidase1 (CPA) and glucagon (Glu). C. qRT-PCR analysis of explants performed as in A, B. Pancreatic marker genes were assessed and fold-changes to WT explants treated with DMSO were calculated by DDct method, using GAPDH mRNA as internal standard.
Given that pancreatic ductal cells form in Ngn3 null mice, and because ductal genes have not been identified as direct Ngn3 targets, we set forth to determine if the cell-extrinsic mechanism involving Notch indeed was causal for the Ngn3 Delayed ON phenotype. We first tested if pancreatic ductal cell differentiation was dependent on Notch. We cultured WT pancreatic explants in the presence of DAPT (FIG. 35A, B, C). These experiments were based on E12.5 pancreas, as at that age, the majority of tip/trunk patterning has occurred, and cells are actively undergoing terminal fate decisions. These cultures developed significant numbers of Muc1+ ductal cells during culture in absence of DAPT (FIG. 35A), with a density exceeding that found in-vivo. Acinar cell development (CPA1+) proceeded in WT (FIG. 35A), albeit at a much reduced level compared to normal development. […] Given that Notch processing inhibition strongly affected cellular differentiation, we investigated this further by performing qRT-PCR on similar-type explants (FIG. 35C).

[2] = system: Ngn3 protein; experiment: Ngn3 protein stability and half-life in HepG2 cells, cycloheximide time course, Western blot; assay type: cell-based
From the text: I. Protein stability and half-life assessment of Ngn3 in HepG2 cells. HepG2 cells were transfected with pTRE2-Ngn3 and pCMV-rtTA, treated with Doxycycline for 24 hr, and on the subsequent day pre-exposed to the proteasomal inhibitor MG132 for 5 hr. At time t=0, protein synthesis was inhibited by cycloheximide (CHX). Western blot using anti-Ngn3 antibodies are shown; b-actin served as a control, and remains stable. MG132 treatment leads to Ngn3 protein accumulation at t=0, and strongly stabilizes the protein, which rapidly decays in non-treated cells. J. Experiment conducted similarly as in I, but CMV-driven versions of Notch1 and Notch2 intracellular domains (N1ICD, N2ICD respectively) (left), or dominant-negative mastermind-like1 (DN-MAML1) were co-transfected with pTRE2-Ngn3. The left-most blot is overexposed to reveal the lower level of accumulated Ngn3 protein in presence of N1ICD, N2ICD, and the loss of Ngn3 upon CHX treatment. The analysis was done 1 hr post CHX treatment. […] K. Mouse pancreatic E14.5 explants were subjected to short-term treatment of CHX (1 hr) and MG132 (5 hr pre, and post-culture) as indicated. Total protein was isolated and subjected to anti-Ngn3 Western blotting. Levels of Ngn3 increase in presence of MG132, and decrease in response to CHX. Ngn3 protein levels increase correspondingly in presence of DAPT, a condition where the protein remains stable (CHX+DAPT lane). L. Stability measurements of Ngn3 in the presence of various cellular regulatory proteins. The experiment was conducted as in I and J. Decay scans (right) provide a measure of the decay rate of Ngn3. In all cases, the t=0 Ngn3 levels prior to CHX treatment is paralleled by the relative half-life of the protein. Destabilizing conditions include N1ICD, N2ICD, and Hes1. Stabilizing conditions include DN-MAML1 and DAPT-treatment. […] Hes1 is able to destabilize Ngn3 in the presence of DN-MAML1.
While Hes1 is known to directly repress Ngn3 expression, this would be an insufficient explanation for the observed results in which Ngn3 was driven by a Pdx1-tTA;tetO governed system. […] As destabilization of other bHLH factors, including NGN, and hASH1 has been observed, which has also implicated Notch, we then tested if a similar mechanism might operate in pancreas. As a means to mechanistically address this question, we first determined if Ngn3 protein half-life was regulated by proteasomal activity. Using three different heterologous cell lines (HepG2, Hek293, and CHO) conditionally expressing Ngn3, we observed a rapid turnover of Ngn3 protein after cycloheximide (CHX) addition; conditions where the control protein, beta-Actin, remained stable (FIG. 34I and data not shown). […]

[3] = system: E12.5 Ngn3 Delayed ON pancreas; experiment: Ngn3 Delayed ON pancreas (E12.5) explant culture 4 days with and without DAPT, immunofluorescence; assay type: cell-based, mouse; conditions: four days ex-vivo
From the text: D-K. Ngn3 Delayed ON pancreas (E12.5, doxycycline was provided at E7.5, E9.5 as in FIG. 2A) was isolated and subjected to 4 days of explant culture with and without DAPT as described in A,B. Immunofluorescence analyses of explant pancreas using select pancreatic markers, after 4 days in culture. D′: insert image showing the expression of glucagon.
Given that Dll1 and Hes1 were >2-fold increased in the E12.5 Ngn3 Delayed ON pancreas, we next asked to what degree Notch processing was also required for the enhanced Ngn3-mediated ductal cell formation in that model. Similar to above, microdissected E12.5 Ngn3 Delayed ON pancreas was cultured for four days ex-vivo with and without DAPT (FIG. 36D-K). In contrast to WT explants, Ngn3 Delayed ON pancreas developed in a quite similar manner as observed in-vivo; in addition to widespread ductal formation, glucagon-producing clusters were observed, and extremely few acinar cells were found (FIG. 36D, F, H). Similar results were obtained using staining for Hnf1β (data not shown). […] The Ngn3-mediated ductal cell formation was abrogated by DAPT treatment ([…]). […] We conclude that Notch signaling is required for both normal, as well as Ngn3-mediated, pancreatic ductal cell development, and that blocking this pathway promotes acinar and endocrine fates at the expense of ductal cells. Of note, at high levels of DAPT treatment, γ-secretase inhibition impacts endocrine subtype determination as well, and if a concomitant increase in Ngn3 protein is provided, the organ regains capacity for significant insulin-cell differentiation.

[4] = system: forward differentiating hES culture; experiment: Two stage protocol: Pan-CM 8 days then second stage medium with MG132, DAPT, forskolin, sodium propionate; transcript analysis; assay type: cell-based, human; conditions: 8 days Pan-CM then second stage medium
Description: As a means to optimize the differentiation of insulin producing cells a two stage protocol was used in which pluripotent cultures were incubated in the presence of Pan-CM for 8 days as a means of generating pancreatic precursors cellular population. The medium these cultures were incubated in were subsequently changed to a medium designed to enhance differentiation of a pancreatic precursor towards a beta-cell terminal fate. All second stage experiments were performed in a medium composed of DMEM/F12 containing 12 mM Glucose supplemented with 1% B27, 1% Pyruvate, 1 uM Alk5 Inh II, 500 ng/ml Noggin and 0.5 uM (1,25 OH2)-Vit D3.
Among the compounds assayed for the ability to increase insulin production in a forward differentiating culture was the proteosomal inhibitor MG132 which we used in the previous example to stabilize Ngn3 protein. We also included the gamma secretase inhibitor DAPT, which was shown in the previous example to greatly increase beta-cell formation in the developing embryonic pancreatic explant study. We also included the short fatty acid salt sodium propionate, which acts as an agonist of short-chain fatty acid receptors. We also included the adenylyl cyclase activator forskolin. We also included the nuclear hormone receptor agonist 1,25 (OH)2)-Vit D3, which binds to, and activates the VDR protein. We also used intermediate concentrations of glucose, shown by others to increase formation of insulin producing cells from pluripotent derivatives. These compounds were used individually or in combination (as outlined in FIG. 37 panel A) to increase insulin-producing endocrine cell formation in a short term Pan-CM treated forward differentiating hES culture system.

[5] = system: Forward differentiating hES cultures; experiment: Pan-CM two weeks then maturation medium with daily MG132 pulse, transcript analysis; assay type: cell-based, human
Description: To successfully differentiate an insulin producing cell a two stage approach was developed. Schematically represented in panel A, pluripotent cultures were treated with Pan-CM for two weeks followed by a switch to a maturation medium (abbreviated MM within panel B) composed of DMEM/F12 with 12 mM glucose supplemented with 5 uM DAPT, 0.5 uM Vit D3, 1% B27, 1 uM Alk 5 Inhibitor and 1 mM Sodium Propionate. In addition cultures were treated with the proteasome inhibitor MG132 at 10 uM for a 4 hour pulse daily for the length of the experiment. We have previously shown that MG132 mediated inhibition of protein degradation promotes sustained Ngn3 signaling resulting in increased endocrine differentiation. […] Substantial increases in several of the endocrine specific genes are observed.
Forward differentiating hES cultures were incubated for two weeks in the presence of Pan-CM at which time culture conditions were changed to a defined maturation medium in addition to being treated daily with MG132. Control cultures remained within Pan-CM for the entire duration of the experiment. […] Transcript levels of Slc30A8, a gene associated with the transport of zinc during the processing of insulin, were increased ˜200 fold when forward differentiating cultures were exposed to MG132. […] It is important to note that while the absolute Glucagon transcript level fold increase was greater than that of insulin, when comparing the effects of forward differentiating cultures treated with Mg132 as to those which were solely treated with Pan-CM there was an ˜5 fold greater increase in relative Glucagon transcript levels as compared to an ˜24 fold greater increase in Insulin transcript levels. […] A similar low increase was also noted for the intestinal specific transcripts Cdx2 and Gucy2c genes, with only an ˜15 and ˜30 fold increase over hES transcript levels.
Also it is important to note that while all of the transcripts assayed throughout this series of experiments were increased in the cultures treated with MG132 the increase in pancreas specific transcripts was always far greater than the increases observed in non-pancreas specific transcripts (i.e., transcripts representative of the liver and intestines).

[6] = system: endogenous Ngn3; experiment: Mouse pancreatic E14.5 explants treated with CHX, MG132, DAPT; anti-Ngn3 Western blotting; assay type: cell-based; conditions: E14.5 mouse pancreatic explants, MG132 5 hr
From the text: I. Protein stability and half-life assessment of Ngn3 in HepG2 cells. HepG2 cells were transfected with pTRE2-Ngn3 and pCMV-rtTA, treated with Doxycycline for 24 hr, and on the subsequent day pre-exposed to the proteasomal inhibitor MG132 for 5 hr. At time t=0, protein synthesis was inhibited by cycloheximide (CHX). Western blot using anti-Ngn3 antibodies are shown; b-actin served as a control, and remains stable. MG132 treatment leads to Ngn3 protein accumulation at t=0, and strongly stabilizes the protein, which rapidly decays in non-treated cells. J. Experiment conducted similarly as in I, but CMV-driven versions of Notch1 and Notch2 intracellular domains (N1ICD, N2ICD respectively) (left), or dominant-negative mastermind-like1 (DN-MAML1) were co-transfected with pTRE2-Ngn3. The left-most blot is overexposed to reveal the lower level of accumulated Ngn3 protein in presence of N1ICD, N2ICD, and the loss of Ngn3 upon CHX treatment. The analysis was done 1 hr post CHX treatment. […]
While Hes1 is known to directly repress Ngn3 expression, this would be an insufficient explanation for the observed results in which Ngn3 was driven by a Pdx1-tTA;tetO governed system. […] As a means to mechanistically address this question, we first determined if Ngn3 protein half-life was regulated by proteasomal activity. […]

[7] = two weeks Pan-CM then maturation medium, MG132 daily

C[C@H](NC(=O)Cc1cc(F)cc(F)c1)C(=O)N[C@H](C(=O)OC(C)(C)C)c1ccccc1 [DAPT, N—[N-(3,5-Diflurophenacetyl-L-alanyl)]-S-phenylglycine t-Butyl Ester]
ductal cell development ([1]; 100 μM DAPT): fully abolished
Gcg expression ([1]; 100 μM DAPT, qRT-PCR): reduced
Ins1, Ins2 expression ([1]; 100 μM DAPT, qRT-PCR): further enhanced
ductal cell development ([1]; 25-50 μM DAPT): significantly reduced
Ngn3, NeuroD1, Nkx6.1 expression ([1]; qRT-PCR): dose-dependent increases
Sox9 expression ([1]; qRT-PCR): Sox9 expression was reduced
acinar gene expression (Cpa1, Cpa2, Ptf1a) ([1]; qRT-PCR): strongly promoted
total Ngn3 protein levels and stability ([2]; HepG2 cells, DAPT at 50 μM): increase in total Ngn3 protein levels
Ngn3-mediated ductal cell formation [3]: abrogated
Pdx1+/Ins+ endocrine cells [3]: numerous
acinar density (CPA1+ cells) [3]: much increased
glucagon-expressing cells [3]: correspondingly reduced

CC(C)C[C@@H](C=O)NC(=O)[C@H](CC(C)C)NC(=O)[C@H](CC(C)C)NC(=O)OCc1ccccc1 [MG132, benzyl (S)-4-methyl-1-((S)-4-methyl-1-((S)-4-methyl-1-oxopentan-2-ylamino)-1-oxopentan-2-ylamino)-1-oxopentan-2-ylcarbamate] (Cbz-Leu-Leu-Leu-aldehyde)
Glucagon transcript levels [4]: remaining approximately the same as controls
Hnf6 transcript increase [4]: ~90 fold
Insulin transcript levels increase over controls [4]: ~80 fold
Nkx6.1 transcript increase [4]: ~12.5 fold
Pdx1 transcript increase [4]: ~40 fold
AFP transcript increase [5]: ~85 fold
Albumin transcript increase [5]: ~50 fold
Cdx2 increase over hES transcript levels [5]: ~15 fold
Glucagon transcript increase compared to cultures solely treated with Pan-CM [5]: ~5 fold
Gucy2c increase over hES transcript levels [5]: ~30 fold
Insulin transcript increase compared to cultures solely treated with Pan-CM [5]: ~24 fold
effect of long incubations on the culture ([5]; forward differentiating culture): overall detrimental effect on the culture
Glucagon absolute relative level over hES levels [5, 7]: ~2000 fold
Insulin absolute relative level over hES levels [5, 7]: ~600 fold
Mafa relative increase over control conditions [5, 7]: ~200 fold
Pax4 relative increase over control conditions [5, 7]: ~300 fold
Slc30A8 transcript levels increase [5, 7]: ~200 fold
half-life of Ngn3 (T1/2) ([2]; HepG2 cells exposed to MG132, CHX time course): > 3 h
loss of endogenous Ngn3 following exposure to CHX [6]: abrogated

B1: Ngn3: pro-endocrine bHLH factor, 214 amino acids (protein, UniProt Q9Y4Z2 1-214, looked up)
chain: MTPQPSGAPTVQVTRETERSFPRASEDEVTCPTSAPPSPTRTRGNCAEAEEGGCRGAPRKLRARRGGRSRPKSELALSKQRRSRRKKANDRERNRMHNLNSALDALRGVLPTFPDDAKLTKIETLRFAHNYIWALTQTLRIADHSLYALEPPAPHCGELGSPGGSPGDWGSLYSPVSQAGSLSPAASLEERPGLLGATFSACLSPGSLAFSDFL
modifications: full-length
notes: pro-endocrine bHLH factor, 214 amino acids
half-life of Ngn3 (T1/2) ([2]; HepG2 cells co-expressing N1ICD or N2ICD): < 15 ′
half-life of Ngn3 (T1/2) ([2]; HepG2 cells, CHX time course, non-treated): ~30 ′
